Assay results from US20100227887A1 (priority 2009, published 2010).
pKi: −log10 of the molar value.

Experiments:
human mGlu 5a receptor = target: T1, human mGlu 5a receptor (Homo sapiens, UniProt P41594); assay: [3H]MPEP competition binding on membranes of EBNA cells transfected with human mGlu 5a receptor; conditions: [3H]MPEP (2 nM) competition, 1 h at 4° C., EBNA cell membranes
T1 construct: expressed in transfected cells; host or cells: EBNA cells (transient transfection); cell membrane homogenates
Procedure: The pharmacological activity of the compounds was tested using the following method: For binding experiments, cDNA encoding human mGlu 5a receptor was transiently transfected into EBNA cells using a procedure described by Schlaeger and Christensen [Cytotechnology 15:1-13 (1998)]. Cell membrane homogenates were stored at −80° C. until the day of assay where upon they were thawed and resuspended and polytronised in 15 mM Tris-HCl, 120 mM NaCl, 100 mM KCl, 25 mM CaCl2, 25 mM MgCl2 binding buffer at pH 7.4 to a final assay concentration of 20 μg protein/well.
Saturation isotherms were determined by addition of twelve [^3H]MPEP concentrations (0.04-100 nM) to these membranes (in a total volume of 200 μl) for 1 h at 4° C. Competition experiments were performed with a fixed concentration of [^3H]MPEP (2 nM) and IC50 values of test compounds evaluated using 11 concentrations (0.3-10,000 nM). Incubations were performed for 1 h at 4° C.
At the end of the incubation, membranes were filtered onto unifilter (96-well white microplate with bonded GF/C filter preincubated 1 h in 0.1% PEI in wash buffer, Packard Bio-Science, Meriden, Conn.) with a Filtermate 96 harvester (Packard BioScience) and washed 3 times with cold 50 mM Tris-HCl, pH 7.4 buffer. Nonspecific binding was measured in the presence of 10 μM MPEP. The radioactivity on the filter was counted (3 min) on a Packard Top-count microplate scintillation counter with quenching correction after addition of 45 μl of microscint 40 (Canberra Packard S. A., Zürich, Switzerland) and shaking for 20 min.
For binding experiments the Ki values of the compounds tested are given. The Ki value is defined by the following formula: […]
in which the IC50 values are those concentrations of the compounds tested which cause 50% inhibition of the competing radioligand ([^3H]MPEP). L is the concentration of radioligand used in the binding experiment and the Kd value of the radioligand is empirically determined for each batch of membranes prepared.

T1 sequence (P41594 21-1180 isoform P41594-2 limits assumed): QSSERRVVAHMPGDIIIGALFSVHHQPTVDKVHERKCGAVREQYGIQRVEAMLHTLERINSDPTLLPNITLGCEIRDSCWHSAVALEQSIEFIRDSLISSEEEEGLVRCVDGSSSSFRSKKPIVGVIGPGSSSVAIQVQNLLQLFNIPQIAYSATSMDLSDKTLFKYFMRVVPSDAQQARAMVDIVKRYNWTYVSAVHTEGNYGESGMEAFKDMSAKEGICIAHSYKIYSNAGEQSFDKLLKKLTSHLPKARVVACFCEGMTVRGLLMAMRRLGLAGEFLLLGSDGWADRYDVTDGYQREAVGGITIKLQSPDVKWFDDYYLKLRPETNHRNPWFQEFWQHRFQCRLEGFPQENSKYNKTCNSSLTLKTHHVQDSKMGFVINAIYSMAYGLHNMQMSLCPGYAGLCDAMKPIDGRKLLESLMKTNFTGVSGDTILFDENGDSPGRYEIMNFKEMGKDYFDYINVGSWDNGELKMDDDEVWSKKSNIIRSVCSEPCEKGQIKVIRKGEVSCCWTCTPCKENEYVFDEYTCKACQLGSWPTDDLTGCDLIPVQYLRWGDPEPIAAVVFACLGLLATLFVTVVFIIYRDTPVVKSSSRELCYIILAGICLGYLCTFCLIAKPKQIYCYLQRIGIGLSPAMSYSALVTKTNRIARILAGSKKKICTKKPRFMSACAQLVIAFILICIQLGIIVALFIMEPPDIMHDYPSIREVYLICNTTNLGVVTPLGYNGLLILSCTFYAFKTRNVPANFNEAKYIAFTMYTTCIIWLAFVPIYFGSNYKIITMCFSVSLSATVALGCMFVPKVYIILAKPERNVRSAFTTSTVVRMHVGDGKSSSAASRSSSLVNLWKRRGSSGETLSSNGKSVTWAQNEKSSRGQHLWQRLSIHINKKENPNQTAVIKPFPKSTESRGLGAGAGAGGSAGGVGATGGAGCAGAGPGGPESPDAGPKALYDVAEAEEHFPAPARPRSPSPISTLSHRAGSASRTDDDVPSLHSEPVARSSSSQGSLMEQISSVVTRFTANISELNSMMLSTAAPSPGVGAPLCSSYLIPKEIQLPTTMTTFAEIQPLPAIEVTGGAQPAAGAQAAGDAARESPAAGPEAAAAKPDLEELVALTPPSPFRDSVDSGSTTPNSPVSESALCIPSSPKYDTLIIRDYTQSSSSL

| SMILES | pKi (human mGlu 5a receptor) | melting point |
| --- | --- | --- |
| Cc1cc(Cl)cc(C(=O)Nc2ccc(F)cn2)n1 [Example 18, 4-Chloro-6-methyl-pyridine-2-carboxylic acid (5-fluoro-pyridin-2-yl)-amide] | 7.52 | 156 °C |
| C#Cc1cc(C)nc(C(=O)Nc2ccn(C)n2)c1 [Example 7, 4-Ethynyl-6-methyl-pyridine-2-carboxylic acid (1-methyl-1H-pyrazol-3-yl)-amide] | 7.48 | 226.5 °C |
| Cc1cc(C#N)cc(C(=O)Nc2ccc(F)cn2)n1 [Example 4, 4-Cyano-6-methyl-pyridine-2-carboxylic acid (5-fluoro-pyridin-2-yl)-amide] | 8.22 | 204.5 °C |
| Cc1cc(C#N)cc(C(=O)Nc2nc(C)cs2)n1 [Example 3, 4-Cyano-6-methyl-pyridine-2-carboxylic acid (4-methyl-thiazol-2-yl)-amide] | 7.82 | 211 °C |
| Cc1cc(C#N)cc(C(=O)Nc2ccc(F)c(C)n2)n1 [Example 11] | 7.24 | 222 °C |
| Cc1cc(C#N)c(C)c(C(=O)Nc2ccn(C)n2)n1 [Example 12, 4-Cyano-3,6-dimethyl-pyridine-2-carboxylic acid (1-methyl-1H-pyrazol-3-yl)-amide] | 6.84 | 180.5 °C |
| Cc1ccc(NC(=O)c2cc(Cl)cc(C)n2)nc1 [Example 19, 4-Chloro-6-methyl-pyridine-2-carboxylic acid (5-methyl-pyridin-2-yl)-amide] | 6.96 | 159 °C |

Continued, values first:

| pKi (human mGlu 5a receptor) | melting point | SMILES |
| --- | --- | --- |
| 7.14 | 177 °C | Cc1cc(C#N)cc(C(=O)Nc2ccc(F)c(C)c2)n1 [Example 49, 4-Cyano-6-methyl-pyridine-2-carboxylic acid (4-fluoro-3-methyl-phenyl)-amide] |
| 7.57 | 204 °C | Cc1cc(C#N)cc(C(=O)Nc2ccc(F)c(Cl)c2)n1 [Example 38, 4-Cyano-6-methyl-pyridine-2-carboxylic acid (3-chloro-4-fluoro-phenyl)-amide] |
| 7.48 | 246.5 °C | Cc1cc(C#N)cc(C(=O)Nc2ccnc(F)c2)n1 [Example 48, 4-Cyano-6-methyl-pyridine-2-carboxylic acid (2-fluoro-pyridin-4-yl)-amide] |
| 7.60 | 238.5 °C | Cc1cc(C#N)cc(C(=O)Nc2ccnc(Cl)c2)n1 [Example 22, 4-Cyano-6-methyl-pyridine-2-carboxylic acid (2-chloro-pyridin-4-yl)-amide] |
| 7.43 | 199.5 °C | Cc1csc(NC(=O)c2nc(C)cc(C#N)c2C)n1 [Example 30, 4-Cyano-3,6-dimethyl-pyridine-2-carboxylic acid (4-methyl-thiazol-2-yl)-amide] |
| 7.51 | 196.5 °C | Cc1cc(C#N)c(C)c(C(=O)Nc2ccc(F)cn2)n1 [Example 27, 4-Cyano-3,6-dimethyl-pyridine-2-carboxylic acid (5-fluoro-pyridin-2-yl)-amide] |
| 8.05 | 160 °C | Cc1cccc(NC(=O)c2cc(C#N)cc(C)n2)c1 [Example 43, 4-Cyano-6-methyl-pyridine-2-carboxylic acid m-tolylamide] |
| 7.44 | 164.5 °C | CCc1cc(C#N)cc(C(=O)Nc2ccn(C)n2)n1 [Example 24, 4-Cyano-6-ethyl-pyridine-2-carboxylic acid (1-methyl-1H-pyrazol-3-yl)-amide] |
